According to US10246456B2, “IRAK4 inhibiting agents” (BIOGEN MA INC., priority 2014, dated 2019):

What was measured:
[1] = test system: IL-6 in A549 cells; experiment: Cell-based IL-6 ELISA assay in IL-1beta stimulated A549 cells; conditions: 2 ng/ml human IL-1beta overnight
Experimental: The cell-based assays is based on IL-6 ELISA quantification. Briefly, A549 cells are cultured in DMEM with 10% FBS medium. When cells reach 80% confluence they are trypsin treated and seeded 180 ul/well in 96-well plate at 2.5×10^4 cells/well. Then, 20 ul of compound serial dilutions (starting at 10 uM, 10 points) are added to the cell plate; incubate for 30 min at 37 C and stimulated with 2 ng/ml human IL-1beta 37 C, 5% CO2 overnight. The next day 100 ul of cell supernatant per well are analyzed on a Human IL-6 Quantikine ELISA kit from R&D Systems.

[2] = target: IRAK4 (Homo sapiens (Human), UniProt Q9NWZ3); experiment: IRAK-4 AlphaScreen biochemical kinase assay; conditions: 1 nM IRAK4, 1 mM ATP, 3.5 h at RT
Chain of IRAK4 (Q9NWZ3 whole entry, species assumed): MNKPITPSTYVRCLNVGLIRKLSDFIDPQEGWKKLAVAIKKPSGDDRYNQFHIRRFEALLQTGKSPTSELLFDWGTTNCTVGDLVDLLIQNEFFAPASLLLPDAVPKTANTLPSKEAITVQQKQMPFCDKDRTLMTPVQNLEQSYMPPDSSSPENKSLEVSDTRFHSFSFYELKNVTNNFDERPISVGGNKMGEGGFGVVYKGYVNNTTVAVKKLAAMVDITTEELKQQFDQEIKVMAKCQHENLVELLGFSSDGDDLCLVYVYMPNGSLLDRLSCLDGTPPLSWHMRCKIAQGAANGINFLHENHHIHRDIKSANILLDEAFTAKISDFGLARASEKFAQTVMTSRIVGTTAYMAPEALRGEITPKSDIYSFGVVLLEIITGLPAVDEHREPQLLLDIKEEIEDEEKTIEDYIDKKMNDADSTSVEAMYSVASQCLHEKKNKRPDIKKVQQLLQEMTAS
In short: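 AlphaScreen read-out: streptavidin beads bind the biotinylated peptide and protein A beads bind the anti-phosphothreonine antibody, so energy transfer reports phosphorylation of the peptide. The kinase is human IRAK-4.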

In the case of `CCC[C@H](N)c1cccc(-c2cc(N3CC(C)OC(C)C3)c3cnn(-c4cccc(CO)n4)c3c2)n1` (stereo partly drawn) [Example 335, (6-(6-(6-((S)-1-aminobutyl)pyridin-2-yl)-4-(2,6-dimethylmorpholino)-1H-indazol-1-yl)pyridin-2-yl)methanol], the EC50 [1] is reported as ≤ 1 µM and the IC50 [2] is reported as < 0.1 µM.

`C[C@H](N)c1cccc(-c2cc(-c3cn(C)cn3)c3cnn(-c4cccc(CO)n4)c3c2)n1` [Example 363, (S)-(6-(6-(6-(1-aminoethyl)pyridin-2-yl)-4-(1-methyl-1H-imidazol-4-yl)-1H-indazol-1-yl)pyridin-2-yl)methanol] was tested, and the EC50 [1] was ≤ 1 µM and the IC50 [2] was < 0.1 µM.

With `CC1COC(c2cc(-c3cccc([C@H](C)N)n3)cc3c2cnn3-c2cccc(CO)n2)=N1` (stereo partly drawn) [Example 528, (6-(6-(6-((S)-1-aminoethyl)pyridin-2-yl)-4-(4-methyl-4,5-dihydrooxazol-2-yl)-1H-indazol-1-yl)pyridin-2-yl)methanol] the EC50 [1] was ≤ 1 µM and the IC50 [2] was < 0.1 µM.

With `CCC[C@H](N)c1cccc(-c2cc(C3CCN(C(C)=O)CC3)c3cnn(-c4cccc(CO)n4)c3c2)n1` [Example 515, (S)-1-(4-(6-(6-(1-aminobutyl)pyridin-2-yl)-1-(6-(hydroxymethyl)pyridin-2-yl)-1H-indazol-4-yl)piperidin-1-yl)ethanone] the EC50 [1] was ≤ 1 µM and the IC50 [2] was < 0.1 µM.

With `CCC(O)C(N)c1cccc(-c2ccc3cnn(-c4cccc(CO)n4)c3c2)n1` (centres unmarked) [Example 507, 1-amino-1-(6-(1-(6-(hydroxymethyl)pyridin-2-yl)-1H-indazol-6-yl)pyridin-2-yl)butan-2-ol] the EC50 [1] was ≤ 1 µM and the IC50 [2] was < 0.1 µM.

`CCC[C@H](N)c1cccc(-c2cc(N3CCC(F)(F)CC3)c3cnn(-c4cccc(CO)n4)c3c2)n1` [Example 346, (S)-(6-(6-(6-(1-aminobutyl)pyridin-2-yl)-4-(4,4-difluoropiperidin-1-yl)-1H-indazol-1-yl)pyridin-2-yl)methanol] was tested, and the EC50 [1] was ≤ 1 µM and the IC50 [2] was < 0.1 µM.

`CCC[C@H](N)c1cccc(-c2cc(CN3CCOCC3)c3cnn(-c4cccc(CO)n4)c3c2)n1` [Example 498, (S)-(6-(6-(6-(1-aminobutyl)pyridin-2-yl)-4-(morpholinomethyl)-1H-indazol-1-yl)pyridin-2-yl)methanol] was tested, and the EC50 [1] was ≤ 1 µM and the IC50 [2] was < 0.1 µM.

For `CCC[C@H](N)c1cccc(-c2cc(OC(F)F)c3cnn(-c4cncc(CO)n4)c3c2)n1` [Example 526, (S)-(6-(6-(6-(1-aminobutyl)pyridin-2-yl)-4-(difluoromethoxy)-1H-indazol-1-yl)pyrazin-2-yl)methanol], the EC50 [1] was ≤ 1 µM and the IC50 [2] was < 0.1 µM.

In the case of `CC(O)c1cccc(-n2ncc3ccc(-c4cccc([C@H](C)N)n4)cc32)n1` (single isomer, unassigned) [Example 416], the EC50 [1] is reported as ≤ 1 µM and the IC50 [2] is reported as < 0.1 µM.

With `CCC[C@H](NC)c1cccc(-c2ccc3cnn(-c4cccc(CO)n4)c3c2)n1` [Example 527, (S)-(6-(6-(6-(1-(methylamino)butyl)pyridin-2-yl)-1H-indazol-1-yl)pyridin-2-yl)methanol] the EC50 [1] was ≤ 1 µM and the IC50 [2] was < 0.1 µM.

With `CC[C@H](N)c1cccc(-c2ccc3cnn(-c4cncc(CO)n4)c3c2)n1` [Example 398, (S)-(6-(6-(6-(1-aminopropyl)pyridin-2-yl)-1H-indazol-1-yl)pyrazin-2-yl)methanol] the EC50 [1] was ≤ 1 µM and the IC50 [2] was < 0.1 µM.

With `CN(C)C(=O)C(N)c1cccc(-c2ccc3cnn(-c4cccc(CO)n4)c3c2)n1` (centres unmarked) [Example 544, 2-amino-2-(6-(1-(6-(hydroxymethyl)pyridin-2-yl)-1H-indazol-6-yl)pyridin-2-yl)-N,N-dimethylacetamide] the EC50 [1] was 1 to 10 µM and the IC50 [2] was < 0.1 µM.

In the case of `C[C@H](N)c1cccc(-c2cc(-c3ncccn3)c3cnn(-c4cccc(CO)n4)c3c2)n1` [Example 364, (S)-(6-(6-(6-(1-aminoethyl)pyridin-2-yl)-4-(pyrimidin-2-yl)-1H-indazol-1-yl)pyridin-2-yl)methanol], the EC50 [1] is reported as ≤ 1 µM and the IC50 [2] is reported as < 0.1 µM.

For `CCC[C@H](N)c1cccc(-c2cc(N3CCOC(C)C3)c3cnn(-c4cccc(CO)n4)c3c2)n1` (stereo partly drawn) [Example 334, (6-(6-(6-((S)-1-aminobutyl)pyridin-2-yl)-4-(2-methylmorpholino)-1H-indazol-1-yl)pyridin-2-yl)methanol], the EC50 [1] was ≤ 1 µM and the IC50 [2] was < 0.1 µM.

`NC(CC1CC1)c1cccc(-c2ccc3cnn(-c4cccc(CO)n4)c3c2)n1` (centres unmarked) [Example 535, (6-(6-(6-(1-amino-2-cyclopropylethyl)pyridin-2-yl)-1H-indazol-1-yl)pyridin-2-yl)methanol] was tested, and the EC50 [1] was ≤ 1 µM and the IC50 [2] was < 0.1 µM.

In the case of `CCC[C@H](N)c1cccc(-c2cc(N3CCCC3)c3cnn(-c4cccc(CO)n4)c3c2)n1` [Example 342, (S)-(6-(6-(6-(1-aminobutyl)pyridin-2-yl)-4-(pyrrolidin-1-yl)-1H-indazol-1-yl)pyridin-2-yl)methanol], the EC50 [1] is reported as ≤ 1 µM and the IC50 [2] is reported as < 0.1 µM.

In the case of `CCC[C@H](N)c1cccc(-c2cc(OCCCOC)c3cnn(-c4cccc(CO)n4)c3c2)n1` [Example 456, (S)-(6-(6-(6-(1-aminobutyl)pyridin-2-yl)-4-(3-methoxypropoxy)-1H-indazol-1-yl)pyridin-2-yl)methanol], the EC50 [1] is reported as ≤ 1 µM and the IC50 [2] is reported as < 0.1 µM.

In the case of `COCCC[C@H](N)c1cccc(-c2cc(OC)c3cnn(-c4cccc(CO)n4)c3c2)n1` [Example 509, (S)-(6-(6-(6-(1-amino-4-methoxybutyl)pyridin-2-yl)-4-methoxy-1H-indazol-1-yl)pyridin-2-yl)methanol], the EC50 [1] is reported as ≤ 1 µM and the IC50 [2] is reported as < 0.1 µM.

In the case of `CC[C@H](N)c1cccc(-c2ccc3cnn(-c4cccc(C(F)F)n4)c3c2)n1` [Example 539, (S)-1-(6-(1-(6-(difluoromethyl)pyridin-2-yl)-1H-indazol-6-yl)pyridin-2-yl)propan-1-amine], the EC50 [1] is reported as 1 to 10 µM and the IC50 [2] is reported as < 0.1 µM.

`CCOc1cc(-c2cccc([C@H](N)c3ccccc3)n2)cc2c1cnn2-c1cccc(CO)n1` [Example 439, (R)-(6-(6-(6-(amino(phenyl)methyl)pyridin-2-yl)-4-ethoxy-1H-indazol-1-yl)pyridin-2-yl)methanol] was tested, and the EC50 [1] was ≤ 1 µM and the IC50 [2] was < 0.1 µM.

For `CCC[C@H](N)c1cccc(-c2cc(OC(C)C)c3cnn(-c4cccc(CO)n4)c3c2)n1` [Example 483, (6-{6-[6-((S)-1-Amino-butyl)-pyridin-2-yl]-4-isopropoxy-indazol-1-yl}-pyridin-2-yl)-methanol], the EC50 [1] was ≤ 1 µM and the IC50 [2] was < 0.1 µM.

In the case of `CCOc1cc(-c2cccc([C@@H](N)CCCOC)n2)cc2c1cnn2-c1cccc(CO)n1` [Example 513, (S)-(6-(6-(6-(1-amino-4-methoxybutyl)pyridin-2-yl)-4-ethoxy-1H-indazol-1-yl)pyridin-2-yl)methanol], the EC50 [1] is reported as ≤ 1 µM and the IC50 [2] is reported as < 0.1 µM.

In the case of `CCC[C@H](N)c1cccc(-c2ccc3cnn(-c4nccc(C(F)(F)F)n4)c3c2)n1` [Example 531, (S)-1-(6-(1-(4-(trifluoromethyl)pyrimidin-2-yl)-1H-indazol-6-yl)pyridin-2-yl)butan-1-amine], the EC50 [1] is reported as ≤ 1 µM and the IC50 [2] is reported as < 0.1 µM.

`C[C@H](N)c1cccc(-c2ccc3cnn(-c4cncc(CO)n4)c3c2)n1` [Example 397, (S)-(6-(6-(6-(1-aminoethyl)pyridin-2-yl)-1H-indazol-1-yl)pyrazin-2-yl)methanol] was tested, and the EC50 [1] was ≤ 1 µM and the IC50 [2] was 0.1 to 1 µM.

For `CCC[C@H](N)c1cccc(-c2cc(OC)c3cnn(-c4nccc(C(F)(F)F)n4)c3c2)n1` [Example 504, (S)-1-(6-(4-methoxy-1-(4-(trifluoromethyl)pyrimidin-2-yl)-1H-indazol-6-yl)pyridin-2-yl)butan-1-amine], the EC50 [1] was ≤ 1 µM and the IC50 [2] was < 0.1 µM.

For `C[C@H](N)c1cccc(-c2cc(C3=NCCO3)c3cnn(-c4cccc(CO)n4)c3c2)n1` [Example 524, (S)-(6-(6-(6-(1-aminoethyl)pyridin-2-yl)-4-(4,5-dihydrooxazol-2-yl)-1H-indazol-1-yl)pyridin-2-yl)methanol], the EC50 [1] was ≤ 1 µM and the IC50 [2] was < 0.1 µM.

`CCC[C@H](N)c1cccc(-c2cc(OCCOC)c3cnn(-c4cccc(CO)n4)c3c2)n1` [Example 476, (S)-(6-(6-(6-(1-aminobutyl)pyridin-2-yl)-4-(2-methoxyethoxy)-1H-indazol-1-yl)pyridin-2-yl)methanol] was tested, and the EC50 [1] was ≤ 1 µM and the IC50 [2] was < 0.1 µM.

In the case of `C[C@H](N)c1cccc(-c2cc(-c3cnn(C(F)(F)F)c3)c3cnn(-c4cccc(CO)n4)c3c2)n1` [Example 376, (S)-(6-(6-(6-(1-aminoethyl)pyridin-2-yl)-4-(1-(trifluoromethyl)-1H-pyrazol-4-yl)-1H-indazol-1-yl)pyridin-2-yl)methanol], the EC50 [1] is reported as ≤ 1 µM and the IC50 [2] is reported as < 0.1 µM.

For `CCC[C@H](N)c1cccc(-c2cc(N3CCSCC3)c3cnn(-c4cccc(CO)n4)c3c2)n1` [Example 338, (S)-(6-(6-(6-(1-aminobutyl)pyridin-2-yl)-4-thiomorpholino-1H-indazol-1-yl)pyridin-2-yl)methanol], the EC50 [1] was ≤ 1 µM and the IC50 [2] was < 0.1 µM.

With `CCC[C@H](N)c1cccc(-c2cc(COC(F)F)c3cnn(-c4cccc(CO)n4)c3c2)n1` [Example 497, (S)-(6-(6-(6-(1-aminobutyl)pyridin-2-yl)-4-((difluoromethoxy)methyl)-1H-indazol-1-yl)pyridin-2-yl)methanol] the EC50 [1] was ≤ 1 µM and the IC50 [2] was < 0.1 µM.

With `C[C@H](N)c1ccnc(-c2ccc3cnn(-c4cccc(CO)n4)c3c2)n1` [Example 411, (S)-(6-(6-(4-(1-aminoethyl)pyrimidin-2-yl)-1H-indazol-1-yl)pyridin-2-yl)methanol] the EC50 [1] was ≤ 1 µM and the IC50 [2] was < 0.1 µM.
